Measurements published in paper PMC4883017 (Molecular pharmaceutics, 2015).

Assays:
HIV-1ADA [1] = assay: Reverse transcriptase inhibition in HIV-1 infected MDM; type: cell-based; conditions: total NRTI concentration 4 μg/mL, Day 10
[2] = Pharmacokinetics after i.v. injection; type: in vivo; conditions: plasma, Balb/c mice, means ± SD
HIV-1ADA [3] = assay: Antiviral activity in vivo, humanized PBL-NSG mouse model of HIV-1 infection; set-up: species or system hu-PBL NSG mice; conditions: three i.v. injections over 15 days, Day 15
HepG2 cells = conditions: human, 10 days, 30 μg/mL
[4] = cited from earlier work

## Cc1cn([C@H]2C[C@H](N=[N+]=[N-])[C@@H](CO)O2)c(=O)[nH]c1=O [AZT, Zidovudine]
HIV-1ADA [1]
  10-fold virus inhibition in the infected MDM at fixed concentration: achieved only after the treatment with nanodrugs
[2]
  AUC 0-τ: 22896 ± 85 ng·h/mL
  AUC 0-∞: 88404 ± 786 ng·h/mL
  CL: 3.81 ± 0.17 mL/h
HIV-1ADA [3]
  Reduction of the virus level per lymphocyte (p24/CD45): three-fold reduction
HepG2 cells
  Drop of the mtDNA amount: 60%
[4]
  Administered drug removed with urine: more than 90%
